Source: patent US20250269018A1, “COMBINED CANCER THERAPY WITH AN EPITHELIAL CELL ADHESION MOLECULE (EPCAM) INHIBITOR AND A HEPATOCYTE GROWTH FACTOR RECEPTOR (HGFR) INHIBITOR” (ACADEMIA SINICA, priority 2021, published 2025)
Peptide text beside a SMILES is read from it. * marks the point of attachment. Cbz = O=C(OCc1ccccc1)*

How the values were obtained:
[1] = system: GSK3β, active β-catenin and Snail; test: Western blotting of GSK3β, active β-catenin, Snail and EMT proteins in HCT116 cells; assay type: cell-based, human
Experimental: FIGS. 4A to 4L. EpEX induces EMT and invasion by stabilizing β-catenin and Snail through decreasing GSK3β activity. (FIG. 4A) The protein expression of EMT markers and regulators was detected by Western blotting in Wild-type (WT) or EpCAM knockout (KO) HCT116 cells after EpEX treatment. (FIG. 4B) Cell invasion was examined by Transwell chamber assay with matrigel. (FIG. 4C) WT or KO HCT116 and HT29 cells were starved for 16 h, then treated with 0.5 nM of HGF with 2% FBS for 24 h. EMT-related protein expression (E-cadherin, vimentin, and Snail) was examined by Western blotting. (FIG. 4D) WT or KO HCT116 and HT29 cells were treated with HGF (0.5 nM) for 24 h. Invasion by HCT116 and HT29 cells was examined by Transwell chamber assay with matrigel. (FIG. 4E) HCT116 and HT29 cells were starved for 16 h, then treated with 0.5 nM of HGF with 2% FBS for 24 h. EMT-related protein expression (E-cadherin, Vimentin, and Snail) was examined by Western blotting. (FIG. 4F) HCT116 and HT29 cells were starved for 16 h, then treated with 0.5 nM of HGF with 2% FBS for 24 h. Cell invasion was assessed by a Transwell assay with matrigel. (FIG. 4G) HCT116 cells after shLuc and shHGFR treatment were treated with 50 nM of EpEX-His. HCT116 cells after shLuc and shHGFR treatment were treated with 50 nM of EpEX-His with 2% FBS for 24 h. EMT-related protein expression (E-cadherin, Vimentin, and Snail) was examined by Western blotting. (FIG. 4H) Cell invasion was examined by Transwell chamber assay with matrigel. (FIG. 4I) Starved HCT116 cells were treated SU (10 μM) for 1 h, followed by treatment with EpEX-His (50 nM) for 24 h. Phosphorylated GSK3β, active-β-catenin, and Snail were detected by Western blotting. (FIG. 4J) HCT116 cells were starved for 16 h, then treated with 50 nM EpEX-His for 24 min. AKT inhibitor LY294002 (25 μM), ERK inhibitor U0126 (20 μM), or PF-562271 (10 μM) were applied 1 h before EpEX treatment. Protein expression of phosphorylated GSK3β and Snail was examined by Western blotting. (FIG. 4K) HCT116 cells were starved for 16 h, then treated with 50 nM EpEX, and SU (10 μM), LY (25 μM), UO (20 μM) or PF (10 μM). Cell invasion was examined by Transwell chamber assay with matrigel. (FIG. 4L) Protein expression was analyzed by Western blotting in EpEX-His (50 nM) treated HCT116 cells after treatment with or without 2 μM GSK3β inhibitor (BIO) for 24 h. Quantification of the normalized protein expression in the right panel.
FIGS. 5A to 5I. EpEX promotes Snail protein stability through inhibition of ubiquitination-mediated proteasomal degradation. (FIG. 5A) The gene expression of EMT markers and regulators was detected by qRT-PCR in Wild-type (WT) or EpCAM knockout (KO) of HCT116 and HT29 cells. (FIG. 5B) Stability of Snail protein in WT or KO of HCT116 cells. Cells were treated with cyclohexamide (CHX) 100 μg/ml at the indicated intervals and subjected to Western blotting. (FIG. 5C) The protein expression of Snail was analyzed in WT or KO HCT116 cells by treating with or without […] MG132 (proteasome inhibitor) for 6 h, followed by Western blotting. (FIG. 5D) WT or KO HCT116 cells were treated with 10 μM MG132 for 6 h before cell collection. The lysates were subjected to immunoprecipitation using anti-Snail antibody and input. Western blotting was performed with the indicated antibodies to detect ubiquitinated Snail protein. (FIG. 5E) Stability of Snail protein in HCT116 cells after EpEX (50 nM) treatment for 24 h. Cells were treated with cyclohexamide (CHX; 100 μg/ml) for the indicated intervals and then subjected to Western blotting. (FIG. 5F) Expression of the gene encoding SNAIL was detected by qRT-PCR in HCT116 cells after EpEX (50 nM) treatment for 24 h. (FIG. 5G) The protein expression of Snail in HCT116 was analyzed cells by Western blotting after EpEX (50 nM) treatment for 24 h, and treatment with or without 10 μM MG132 (proteasome inhibitor) for 6 h. […]

[2] = system: GSK3β, active β-catenin and Snail; test: as above; assay type: cell-based, human; remark: listed apart in the source

Structure (SMILES): O=C1Nc2cc(Br)ccc2/C1=C1/Nc2ccccc2/C1=N\O [BIO]
- active β-catenin and Snail protein expressions ([1]; HCT116, control and EpEX-His (50 nM) treated, 2 μM BIO 24 h, FIG. 4L): upregulated both in control and EpEX-treated cells
- active β-catenin and Snail proteins ([2]; EpAb2-6 and 2 μM BIO 24 h, FIG. 6H): increased

Structure (SMILES): CC(C)C[C@@H](C=O)NC(=O)[C@H](CC(C)C)NC(=O)[C@H](CC(C)C)NC(=O)OCc1ccccc1 [MG132] (Cbz-Leu-Leu-Leu-aldehyde)
- Snail steady-state protein levels ([1]; HCT116 with or without EpEX (50 nM, 24 h), 10 μM MG132 6 h, FIG. 5G): increased Snail steady-state protein levels
- Snail steady-state protein levels ([1]; WT or EpCAM KO HCT116, for 6 h, FIG. 5C): increased Snail steady-state protein levels
- Active β-catenin and Snail steady-state protein levels ([2]; 10 μM MG132 and EpAb2-6 for 6 h, FIG. 6I): increased active β-catenin and Snail steady-state protein levels
